Data as given in patent US4175125A, “Method for treating methicillin resistant staphylococcus aureus” (Eli Lilly and Company, priority 1978, dated 1979).
In brackets after ≈: the same amount, converted by molar mass. Read-outs that look alike come from different tables or passages of the source.

Experiments:
Type in all cases: cell-based
[1] = test system: Staphylococcus aureus cultures; assay: Broth dilution MIC in trypticase soy broth, low and high NaCl (Example 10); settings: Staphylococcus aureus, TSB, read-out: MIC
Summary of the method: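 MIC by broth dilution, in µg/ml, against Staphylococcus aureus cultures grown in trypticase soy broth containing either 0.5 percent or 5.0 percent NaCl. The high-salt condition serves to distinguish methicillin-resistant cultures.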

[2] = test system: Staphylococcus aureus cultures; assay: Modified Bauer-Kirby Disc Susceptibility Test (Example 11); design: zone of inhibition: dose or concentration left out as unconfirmed; settings: for zone of inhibition: Staphylococcus aureus; for Change 37°-30°: 30 mg Disc
Procedure: This example exemplifies the antibiotic activity of 7-[2'-(3"-chloro-4"-fluorophenylthio)acetamido]cephalosporanic acid, a water soluble compound, described in Example 8, against various Staphylococcus aureus cultures, in a modified Bauer-Kirby Disc Susceptibility Test (Bauer, A. W., W. M. M. Kirby, J. C. Sherris, and M. Turck, 1966, Amer. J. Clin. Pathol. 45:493-496). In this test the cultures were incubated at both 37° C. or 30° C. […] 16, 1968, the heterogeneity of methicilllin-resistant S. aureus is manifested by incubation at 30° C.

[3] = test system: Staphylococcus aureus cultures; assay: Agar dilution susceptibility test, phenylthioacetyl cephalosporins vs methicillin resistant S. aureus (Example 9); settings: for MIC: Staphylococcus aureus, read-out: MIC
Summary of the method: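 Agar dilution MIC, μg/mL, against Staphylococcus aureus isolates, inocula diluted to 10^3 bacteria per spot. Panel: penicillin-sensitive 3055 and penicillin-resistant H232 controls, methicillin-resistant clinical isolates, and laboratory-selected mutant 3136.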

[4] = culture 3130, table part marked b
[5] = culture 3130, table part marked c
[6] = culture 3131, table part marked b
[7] = culture 3131, table part marked c
[8] = culture 3134, table part marked b
[9] = culture 3134, table part marked c
[10] = culture 3135, table part marked b
[11] = culture 3135, table part marked c
[12] = culture 3136, table part marked b
[13] = culture 3136, table part marked c
[14] = culture 3137, table part marked b
[15] = culture 3137, table part marked c
[16] = culture 3138, table part marked b
[17] = culture 3138, table part marked c
[18] = culture 3139, table part marked b
[19] = culture 3139, table part marked c
[20] = culture (Seattle) 966, table part marked b
[21] = culture (Seattle) 966, table part marked c
[22] = culture S61, table part marked b
[23] = culture S61, table part marked c

- MIC ([1]; culture 3055 (control), table part marked b): 0.06 µg/mL (≈ 0.122 µM)
- MIC ([1]; culture 3055 (control), table part marked c): 0.06 µg/mL (≈ 0.122 µM)
- MIC [1, 4]: < 0.5 µg/mL
- MIC [1, 5]: 2 µg/mL (≈ 4.07 µM)
- MIC [1, 6]: < 0.5 µg/mL
- MIC [1, 7]: 1 µg/mL (≈ 2.04 µM)
- MIC ([1]; culture 3132 (first column so headed), table part marked b): < 0.5 µg/mL
- MIC ([1]; culture 3132 (first column so headed), table part marked c): 1 µg/mL (≈ 2.04 µM)
- MIC ([1]; culture 3132 (second column so headed), table part marked b): < 0.5 µg/mL
- MIC ([1]; culture 3132 (second column so headed), table part marked c): 2 µg/mL (≈ 4.07 µM)
- MIC [1, 8]: 1 µg/mL (≈ 2.04 µM)
- MIC [1, 9]: 2 µg/mL (≈ 4.07 µM)
- MIC [1, 10]: < 0.5 µg/mL
- MIC [1, 11]: 2 µg/mL (≈ 4.07 µM)
- MIC [1, 12]: 0.5 µg/mL (≈ 1.02 µM)
- MIC [1, 13]: 2 µg/mL (≈ 4.07 µM)
- MIC [1, 14]: 2 µg/mL (≈ 4.07 µM)
- MIC [1, 15]: 4 µg/mL (≈ 8.14 µM)
- MIC [1, 16]: 1 µg/mL (≈ 2.04 µM)
- MIC [1, 17]: 2 µg/mL (≈ 4.07 µM)
- MIC [1, 18]: 2 µg/mL (≈ 4.07 µM)
- MIC [1, 19]: 2 µg/mL (≈ 4.07 µM)
- MIC [1, 20]: 1 µg/mL (≈ 2.04 µM)
- MIC [1, 21]: 8 µg/mL (≈ 16.3 µM)
- MIC ([1]; culture H232 (control), table part marked b): 0.12 µg/mL (≈ 0.244 µM)
- MIC ([1]; culture H232 (control), table part marked c): 0.12 µg/mL (≈ 0.244 µM)
- MIC ([1]; culture Kavarnick 1138501, table part marked b): 0.5 µg/mL (≈ 1.02 µM)
- MIC ([1]; culture Kavarnick 1138501, table part marked c): 1 µg/mL (≈ 2.04 µM)
- MIC [1, 22]: 0.5 µg/mL (≈ 1.02 µM)
- MIC [1, 23]: 1 µg/mL (≈ 2.04 µM)
- MIC ([1]; culture S, table part marked b): 0.5 µg/mL (≈ 1.02 µM)
- MIC ([1]; culture S, table part marked c): 2 µg/mL (≈ 4.07 µM)
- MIC ([3]; culture 3055 (control, benzylpenicillin sensitive), table part marked b): < 0.06 µg/mL
- MIC ([3]; culture 3055 (control, benzylpenicillin sensitive), table part marked c): < 0.06 µg/mL
- MIC [3, 4]: 0.5 µg/mL (≈ 1.02 µM)
- MIC [3, 5]: 1 µg/mL (≈ 2.04 µM)
- MIC [3, 6]: 0.5 µg/mL (≈ 1.02 µM)
- MIC [3, 7]: 2 µg/mL (≈ 4.07 µM)
- MIC ([3]; culture 3132, table part marked b): 0.25 µg/mL (≈ 0.509 µM)
- MIC ([3]; culture 3132, table part marked c): 0.5 µg/mL (≈ 1.02 µM)
- MIC ([3]; culture 3133, table part marked b): 1 µg/mL (≈ 2.04 µM)
- MIC ([3]; culture 3133, table part marked c): 1 µg/mL (≈ 2.04 µM)
- MIC [3, 8]: 0.5 µg/mL (≈ 1.02 µM)
- MIC [3, 9]: 1 µg/mL (≈ 2.04 µM)
- MIC [3, 10]: 0.5 µg/mL (≈ 1.02 µM)
- MIC [3, 11]: 1 µg/mL (≈ 2.04 µM)
- MIC [3, 12]: 0.25 µg/mL (≈ 0.509 µM)
- MIC [3, 13]: 2 µg/mL (≈ 4.07 µM)
- MIC [3, 14]: 2 µg/mL (≈ 4.07 µM)
- MIC [3, 15]: 4 µg/mL (≈ 8.14 µM)
- MIC [3, 16]: 2 µg/mL (≈ 4.07 µM)
- MIC [3, 17]: 1 µg/mL (≈ 2.04 µM)
- MIC [3, 18]: 0.5 µg/mL (≈ 1.02 µM)
- MIC [3, 19]: 1 µg/mL (≈ 2.04 µM)
- MIC [3, 20]: 0.25 µg/mL (≈ 0.509 µM)
- MIC [3, 21]: 0.5 µg/mL (≈ 1.02 µM)
- MIC ([3]; culture H232 (control, benzylpenicillin-resistant), table part marked b): < 0.06 µg/mL
- MIC ([3]; culture H232 (control, benzylpenicillin-resistant), table part marked c): < 0.06 µg/mL
- MIC ([3]; culture Kavarmark 1138501, table part marked b): 0.5 µg/mL (≈ 1.02 µM)
- MIC ([3]; culture Kavarmark 1138501, table part marked c): 2 µg/mL (≈ 4.07 µM)
- MIC [3, 22]: 0.5 µg/mL (≈ 1.02 µM)
- MIC [3, 23]: 2 µg/mL (≈ 4.07 µM)
Compound: CC(=O)OCC1=C(C(=O)O)N2C(=O)C(NC(=O)CSc3cc(Cl)cc(Cl)c3)C2SC1 (centres unmarked) [Example 3, 7-(3,5-Dichlorophenylthioacetamido)-cephalosporanic acid]
- zone of inhibition ([2]; culture 3055 (penicillin sensitive), 30°, read-out: disc susceptibility (zone) at 30°): > 35 mm
- zone of inhibition ([2]; culture 3055 (penicillin sensitive), 37°, read-out: disc susceptibility (zone) at 37°): > 35 mm
- zone of inhibition ([2]; culture 3074 (methicillin sensitive, penicillinase producing), 30°, read-out: disc susceptibility (zone) at 30°): 35 mm
- zone of inhibition ([2]; culture 3074 (methicillin sensitive, penicillinase producing), 37°, read-out: disc susceptibility (zone) at 37°): 35 mm
- zone of inhibition ([2]; culture 3125 (methicillin resistant), 30°, read-out: disc susceptibility (zone) at 30°): 37 mm
- zone of inhibition ([2]; culture 3125 (methicillin resistant), 37°, read-out: disc susceptibility (zone) at 37°): 34.2 mm
- zone of inhibition ([2]; culture 3130 (methicillin resistant), 30°, read-out: disc susceptibility (zone) at 30°): 33.6 mm
- zone of inhibition ([2]; culture 3130 (methicillin resistant), 37°, read-out: disc susceptibility (zone) at 37°): 32 mm
- zone of inhibition ([2]; culture 3131 (methicillin resistant), 30°, read-out: disc susceptibility (zone) at 30°): 31.8 mm
- zone of inhibition ([2]; culture 3131 (methicillin resistant), 37°, read-out: disc susceptibility (zone) at 37°): 30.6 mm
- zone of inhibition ([2]; culture 3132 (methicillin resistant), 30°, read-out: disc susceptibility (zone) at 30°): 32.6 mm
- zone of inhibition ([2]; culture 3132 (methicillin resistant), 37°, read-out: disc susceptibility (zone) at 37°): 31 mm
- zone of inhibition ([2]; culture 3133 (methicillin resistant), 30°, read-out: disc susceptibility (zone) at 30°): 30.8 mm
- zone of inhibition ([2]; culture 3133 (methicillin resistant), 37°, read-out: disc susceptibility (zone) at 37°): 29 mm
- zone of inhibition ([2]; culture 3134 (methicillin resistant), 30°, read-out: disc susceptibility (zone) at 30°): 33 mm
- zone of inhibition ([2]; culture 3134 (methicillin resistant), 37°, read-out: disc susceptibility (zone) at 37°): 29.8 mm
- zone of inhibition ([2]; culture 3135 (methicillin resistant), 30°, read-out: disc susceptibility (zone) at 30°): 29.6 mm
- zone of inhibition ([2]; culture 3135 (methicillin resistant), 37°, read-out: disc susceptibility (zone) at 37°): 28.3 mm
- zone of inhibition ([2]; culture 3136 (methicillin resistant), 30°, read-out: disc susceptibility (zone) at 30°): 29.8 mm
- zone of inhibition ([2]; culture 3136 (methicillin resistant), 37°, read-out: disc susceptibility (zone) at 37°): 35 mm
- zone of inhibition ([2]; culture 3137 (methicillin resistant), 30°, read-out: disc susceptibility (zone) at 30°): 26 mm
- zone of inhibition ([2]; culture 3137 (methicillin resistant), 37°, read-out: disc susceptibility (zone) at 37°): 26.2 mm
- zone of inhibition ([2]; culture 3138 (methicillin resistant), 30°, read-out: disc susceptibility (zone) at 30°): 29.4 mm
- zone of inhibition ([2]; culture 3138 (methicillin resistant), 37°, read-out: disc susceptibility (zone) at 37°): 27 mm
- zone of inhibition ([2]; culture 3139 (methicillin resistant), 30°, read-out: disc susceptibility (zone) at 30°): 32.2 mm
- zone of inhibition ([2]; culture 3139 (methicillin resistant), 37°, read-out: disc susceptibility (zone) at 37°): 36 mm
- zone of inhibition ([2]; culture 3140 (methicillin resistant), 30°, read-out: disc susceptibility (zone) at 30°): 30.2 mm
- zone of inhibition ([2]; culture 3140 (methicillin resistant), 37°, read-out: disc susceptibility (zone) at 37°): 28.8 mm
- zone of inhibition ([2]; culture H232 (methicillin sensitive, penicillinase producing), 30°, read-out: disc susceptibility (zone) at 30°): 32.6 mm
- zone of inhibition ([2]; culture H232 (methicillin sensitive, penicillinase producing), 37°, read-out: disc susceptibility (zone) at 37°): 34.1 mm
- Change 37°-30° ([2]; culture 3074): 0 mm
- Change 37°-30° ([2]; culture 3125): +2.8 mm
- Change 37°-30° ([2]; culture 3130): +1.6 mm
- Change 37°-30° ([2]; culture 3131): +1.2 mm
- Change 37°-30° ([2]; culture 3132): +1.6 mm
- Change 37°-30° ([2]; culture 3133): +1.8 mm
- Change 37°-30° ([2]; culture 3134): +3.2 mm
- Change 37°-30° ([2]; culture 3135): +1.3 mm
- Change 37°-30° ([2]; culture 3136): +5.2 mm
- Change 37°-30° ([2]; culture 3137): -0.2 mm
- Change 37°-30° ([2]; culture 3138): +2.4 mm
- Change 37°-30° ([2]; culture 3139): -3.8 mm
- Change 37°-30° ([2]; culture 3140): +1.4 mm
- Change 37°-30° ([2]; culture H232): -1.5 mm
- effectiveness in in vitro tests vs methicillin, cephalothin and cephaloridine ([3]; various cultures of methicillin-resistant Staphylococcus aureus): substantially more effective than methicillin, cephalothin, and cephaloridine
